Measurements as given in patent US20080242688A1, “Method 741” (ASTRAZENECA AB, priority 2007, published 2008).
“And” between values parts separate entries of the source, which are not always exact repeats. Equal entries are not always repeated. Where two headings read alike, the source gives them in different places.

Columns and labels:
[1] = Single dose PK/TK, ferret; conditions: in vivo
Description: (§1) This section provides a summary of the pharmacokinetic and metabolism properties of AZD0328 derived from in vivo studies. […] The derived PK/TK parameters from these studies are presented in Table 4 for single dose studies (DMR4, 0619LR, 20030191PCR, DMO16, DMB10, DMW12, 50190, 0190DD and 03.330/1), and are presented in Table 5 multiple dose PK/TK studies (DMR4, 0612AR, DMB15, 50190, 0190DD and 0295AD).

[2] = Multiple dose PK/TK, minipig; format: in vivo; conditions: capsules fasted; for AUC / Cmax / Tmax: both sexes, Gottingen, minipig, in vivo, po
Description: as §1

[3] = Cardiovascular effects in telemetered rats; format: in vivo, rat; conditions: plasma, rat
Description: (§2) Effects of single oral doses of AZD0328 on mean, systolic and diastolic arterial blood pressures, heart rate, body temperature, locomotor activity and respiratory parameters were evaluated in rats by combining whole body plethysmography with telemetry (Table 3). […] The degree of hypertension, however, was similar at the 3 highest doses, which partly can be explained by the high individual variation in plasma exposure at each dose level. The effect on heart rate was, on the other hand, dose-related.

rats = assay: Cardiovascular effects in telemetered rats; format: in vivo, rat
Description: as §2

Pgp transporter = biological target: T1, Pgp transporter (Homo sapiens, UniProt P08183); assay: Digoxin transport, cell-based assay; format: in vitro ADME
T1 construct: host or cells: unnamed cells
Description: The 50% bioavailability of AZD0328 in human was conservatively selected based on the observations from rat, dog and monkey.

dog Purkinje fibre = assay: Dog isolated cardiac Purkinje fibres, action potential; conditions: 0.5 and 1 Hz
Description: Effects of AZD0328 on cardiac action potentials were assessed in 4 dog Purkinje fibre preparations. (Table 3). The following action potential parameters were measured at the stimulation frequencies 0.5 and 1 Hz: action potential duration at 50% (APD50), 70% (APD70) and 90% (APD90) of repolarisation; the maximum velocity of the action potential upstroke (Vmax); the action potential amplitude (APA) and the resting membrane potential (RMP). At both stimulation frequencies, AZD0328 caused a concentration-dependent prolongation of APD50, APD70 and APD90, with significant effects at 5.6 μM and above. There was also an indication of proarrhythmic potential of the compound.

muscarinic M5 receptor = muscarinic M5 receptor (Homo sapiens, UniProt P08912); assay: Selectivity panel, radioligand binding; conditions: read-out: inhibition of specific radioligand binding
Description: (§3) Secondary effects of AZD0328 on targets other than the α7 nicotinic acetylcholine receptor (nAChR) were investigated in vitro. Selectivity against a broad panel of 129 receptors, ion channels, nuclear hormone receptors, transporters and enzymes was tested using radioligand binding assays (Report no. GPW003).

[4] = biological target: serotonergic 5-HT3 receptor (Homo sapiens, UniProt P46098); assay: Selectivity panel, radioligand binding; conditions: read-out: inhibition of specific radioligand binding
Description: as §3

muscarinic M3 receptor = muscarinic M3 receptor (Homo sapiens, UniProt P20309); assay: Selectivity panel, radioligand binding; conditions: read-out: inhibition of specific radioligand binding
Description: as §3

[5] = tested on: central nicotinic receptors; assay: Selectivity panel, radioligand binding; conditions: 10 μM
Description: as §3

adrenergic α2B receptor = adrenergic α2B receptor (Homo sapiens, UniProt P18089); assay: Selectivity panel, radioligand binding; conditions: read-out: inhibition of specific radioligand binding
Description: as §3

Single dose PK/TK, rat = format: in vivo; conditions: for AUC / Cmax / Tmax: in vivo
Description: as §1

[6] = biological target: T2, rat recombinant α7 receptor (Rattus norvegicus, UniProt Q05941); assay: Whole cell current, oocytes; format: cell-based; conditions: oocyte
T2 construct: expressed in transfected cells; host or cells: Xenopus oocytes
Description: (§4) In membranes prepared either from cultured, human recombinant α7 receptor-expressing, human embryonic kidney cells α7-HEK) or from rat brain hippocampus, AZD0328 competed with binding of an iodinated form of the high-affinity, selective α7 receptor antagonist snake toxin, [^125I]-α-bungarotoxin (BTX) (Table 1). In Xenopus oocytes injected with human, recombinant α7 receptor mRNA, AZD0328 activates whole cell currents (Table 2). […] In acutely dissociated rat hippocampal interneurons, AZD0328 elicits rapidly activated, desensitizing whole-cell current (Table 1), consistent with the known properties of rat neuronal α7 receptors. […] AZD0328 modulates synaptic function, consistent with the well-known role of α7 receptors as heteroreceptor modulators of glutamatergic and GABAergic synaptic function.

[7] = biological target: T3, mouse recombinant α7 receptor (Mus musculus, UniProt P49582); assay: Whole cell current, oocytes; format: cell-based; conditions: oocyte
T3 construct: expressed in transfected cells; host or cells: Xenopus oocytes
Description: as §4

[8] = biological target: human recombinant α7 receptor (Homo sapiens, UniProt P36544); assay: Whole cell current activation kinetics, α7-HEK cells; format: cell-based; set-up: expressed in transfected cells; host or cells: Xenopus oocytes (mRNA injected)
[9] = male, ferret 4M, DMO16, single oral 10 mg/kg (46 μmol/kg)
[10] = 73.1 mg/kg, minipig 2F+2M, 50190, 73.1 mg/kg (338 μmol/kg), day 1
[11] = 73.1 mg/kg, minipig 2F+2M, 50190, 73.1 mg/kg (338 μmol/kg), day 7
[12] = 422 mg/kg, minipig 2F+2M, 50190, 422 mg/kg (1951 μmol/kg), day 7
[13] = both sexes, rat 1M+1F, DMR4, single oral 2.16 mg/kg (10 μmol/kg)
[14] = female, rat 2F, 0619LR, single oral 149 mg/kg (690 μmol/kg)
[15] = male, rat 3M, 0619LR, single oral 201 mg/kg (930 μmol/kg)
[16] = male, rat 4M, 20030191PCR, single oral 1.08 mg/kg (5 μmol/kg)
[17] = male, rat 4M, 20030191PCR, single oral 32.4 mg/kg (150 μmol/kg)
[18] = male, rat 4M, 20030191PCR, single oral 54.1 mg/kg (250 μmol/kg)
[19] = male, rat 4M, 20030191PCR, single oral 86.5 mg/kg (400 μmol/kg)

T2 sequence (Q05941 23-502): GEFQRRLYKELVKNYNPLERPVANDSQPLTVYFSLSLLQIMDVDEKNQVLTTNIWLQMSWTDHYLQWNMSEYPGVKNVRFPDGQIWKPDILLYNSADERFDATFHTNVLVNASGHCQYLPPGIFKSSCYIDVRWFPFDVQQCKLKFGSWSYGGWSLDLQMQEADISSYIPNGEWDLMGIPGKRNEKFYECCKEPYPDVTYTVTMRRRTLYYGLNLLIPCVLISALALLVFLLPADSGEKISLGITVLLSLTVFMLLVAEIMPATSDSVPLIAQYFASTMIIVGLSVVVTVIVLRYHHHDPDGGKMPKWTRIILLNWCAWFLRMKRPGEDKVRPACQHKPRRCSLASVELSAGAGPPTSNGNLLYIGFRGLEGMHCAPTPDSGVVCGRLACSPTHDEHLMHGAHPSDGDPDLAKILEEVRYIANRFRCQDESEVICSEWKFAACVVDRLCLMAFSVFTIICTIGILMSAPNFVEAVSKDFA
T3 sequence (P49582 23-502): as the sequence (Q05941 23-502) above, with A402T counted along it
T1 sequence (P08183 whole entry): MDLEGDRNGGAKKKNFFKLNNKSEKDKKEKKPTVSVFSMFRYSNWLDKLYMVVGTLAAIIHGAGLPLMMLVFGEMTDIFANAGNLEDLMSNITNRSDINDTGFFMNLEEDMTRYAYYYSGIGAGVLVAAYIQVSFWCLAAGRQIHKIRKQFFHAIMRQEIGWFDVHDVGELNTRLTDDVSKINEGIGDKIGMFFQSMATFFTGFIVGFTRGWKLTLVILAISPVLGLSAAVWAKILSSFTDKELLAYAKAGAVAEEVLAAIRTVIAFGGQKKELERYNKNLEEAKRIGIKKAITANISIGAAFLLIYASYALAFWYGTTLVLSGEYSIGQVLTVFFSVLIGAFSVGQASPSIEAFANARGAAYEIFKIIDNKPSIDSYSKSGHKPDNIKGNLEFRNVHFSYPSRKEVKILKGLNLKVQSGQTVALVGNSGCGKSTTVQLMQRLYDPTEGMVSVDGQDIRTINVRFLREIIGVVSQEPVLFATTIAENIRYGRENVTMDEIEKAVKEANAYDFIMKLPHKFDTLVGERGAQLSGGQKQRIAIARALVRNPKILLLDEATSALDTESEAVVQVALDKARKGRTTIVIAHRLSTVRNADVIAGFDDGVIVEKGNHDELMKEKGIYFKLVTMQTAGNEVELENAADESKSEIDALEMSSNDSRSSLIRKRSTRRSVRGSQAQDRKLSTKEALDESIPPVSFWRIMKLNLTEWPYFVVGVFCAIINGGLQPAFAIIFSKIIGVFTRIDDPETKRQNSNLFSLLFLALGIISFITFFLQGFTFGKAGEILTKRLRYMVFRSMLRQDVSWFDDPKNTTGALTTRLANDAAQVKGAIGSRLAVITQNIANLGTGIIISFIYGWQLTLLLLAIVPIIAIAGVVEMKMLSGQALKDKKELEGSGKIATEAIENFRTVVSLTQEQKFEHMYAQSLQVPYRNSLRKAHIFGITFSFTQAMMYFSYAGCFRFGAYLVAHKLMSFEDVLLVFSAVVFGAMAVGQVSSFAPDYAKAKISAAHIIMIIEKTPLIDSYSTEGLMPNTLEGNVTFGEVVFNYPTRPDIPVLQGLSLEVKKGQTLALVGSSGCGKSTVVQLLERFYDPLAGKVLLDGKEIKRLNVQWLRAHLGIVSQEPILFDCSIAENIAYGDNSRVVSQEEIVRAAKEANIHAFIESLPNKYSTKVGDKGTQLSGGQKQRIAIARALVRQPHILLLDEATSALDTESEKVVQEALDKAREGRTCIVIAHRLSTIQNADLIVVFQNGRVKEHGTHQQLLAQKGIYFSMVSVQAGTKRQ
Chain of muscarinic M3 receptor (P20309 whole entry): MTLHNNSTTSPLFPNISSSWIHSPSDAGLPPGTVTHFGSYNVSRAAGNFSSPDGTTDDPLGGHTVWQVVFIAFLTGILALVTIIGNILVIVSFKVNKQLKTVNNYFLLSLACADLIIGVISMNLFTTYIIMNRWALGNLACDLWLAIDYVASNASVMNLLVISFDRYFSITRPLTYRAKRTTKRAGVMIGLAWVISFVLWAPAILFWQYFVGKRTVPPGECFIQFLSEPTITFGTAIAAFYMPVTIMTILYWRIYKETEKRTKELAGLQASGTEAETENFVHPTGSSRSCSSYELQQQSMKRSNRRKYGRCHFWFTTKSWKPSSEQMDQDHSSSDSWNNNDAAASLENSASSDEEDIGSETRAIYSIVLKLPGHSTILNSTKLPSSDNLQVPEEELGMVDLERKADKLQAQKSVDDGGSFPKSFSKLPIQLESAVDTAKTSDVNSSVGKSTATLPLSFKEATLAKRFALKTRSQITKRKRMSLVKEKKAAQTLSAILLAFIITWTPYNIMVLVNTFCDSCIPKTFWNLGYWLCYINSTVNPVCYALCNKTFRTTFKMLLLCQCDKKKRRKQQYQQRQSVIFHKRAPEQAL
Chain of serotonergic 5-HT3 receptor (P46098 24-478): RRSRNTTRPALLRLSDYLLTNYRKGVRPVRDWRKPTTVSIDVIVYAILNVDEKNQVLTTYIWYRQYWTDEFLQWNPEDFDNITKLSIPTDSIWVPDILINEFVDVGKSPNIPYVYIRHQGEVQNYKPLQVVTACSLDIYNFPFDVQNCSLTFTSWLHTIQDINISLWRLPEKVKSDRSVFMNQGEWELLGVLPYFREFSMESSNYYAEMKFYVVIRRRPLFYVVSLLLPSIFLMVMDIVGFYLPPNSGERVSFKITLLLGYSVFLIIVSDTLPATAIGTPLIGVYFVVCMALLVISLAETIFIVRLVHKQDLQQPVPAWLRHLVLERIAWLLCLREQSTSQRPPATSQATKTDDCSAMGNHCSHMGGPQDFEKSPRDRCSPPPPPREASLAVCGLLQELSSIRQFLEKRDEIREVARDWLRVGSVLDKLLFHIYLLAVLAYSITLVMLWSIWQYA
Chain of adrenergic α2B receptor (P18089 whole entry): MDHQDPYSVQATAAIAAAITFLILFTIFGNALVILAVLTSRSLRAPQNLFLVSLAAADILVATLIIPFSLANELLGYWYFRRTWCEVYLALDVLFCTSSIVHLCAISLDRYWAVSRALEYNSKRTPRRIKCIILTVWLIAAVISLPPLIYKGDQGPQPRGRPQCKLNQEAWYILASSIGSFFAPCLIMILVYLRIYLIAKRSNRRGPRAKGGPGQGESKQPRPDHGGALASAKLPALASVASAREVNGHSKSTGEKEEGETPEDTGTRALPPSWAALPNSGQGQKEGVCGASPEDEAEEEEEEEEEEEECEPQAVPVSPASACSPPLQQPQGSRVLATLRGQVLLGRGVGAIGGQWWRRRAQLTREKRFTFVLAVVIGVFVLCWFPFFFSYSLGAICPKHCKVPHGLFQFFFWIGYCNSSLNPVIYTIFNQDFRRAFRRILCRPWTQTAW
Chain of muscarinic M5 receptor (P08912 whole entry): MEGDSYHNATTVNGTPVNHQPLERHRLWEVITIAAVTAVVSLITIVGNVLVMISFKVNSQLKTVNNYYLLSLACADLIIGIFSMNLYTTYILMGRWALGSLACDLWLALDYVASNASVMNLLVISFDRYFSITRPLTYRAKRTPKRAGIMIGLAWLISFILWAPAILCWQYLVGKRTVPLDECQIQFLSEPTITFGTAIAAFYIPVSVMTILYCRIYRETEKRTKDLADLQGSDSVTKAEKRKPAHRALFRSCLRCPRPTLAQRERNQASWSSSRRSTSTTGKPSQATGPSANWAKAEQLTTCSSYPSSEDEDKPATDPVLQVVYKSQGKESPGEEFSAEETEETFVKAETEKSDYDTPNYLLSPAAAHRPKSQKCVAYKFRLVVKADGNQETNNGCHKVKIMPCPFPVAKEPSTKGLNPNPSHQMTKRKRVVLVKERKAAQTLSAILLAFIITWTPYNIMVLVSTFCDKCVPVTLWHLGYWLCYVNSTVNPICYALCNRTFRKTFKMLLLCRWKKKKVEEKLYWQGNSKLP
Chain of human recombinant α7 receptor (P36544 23-502): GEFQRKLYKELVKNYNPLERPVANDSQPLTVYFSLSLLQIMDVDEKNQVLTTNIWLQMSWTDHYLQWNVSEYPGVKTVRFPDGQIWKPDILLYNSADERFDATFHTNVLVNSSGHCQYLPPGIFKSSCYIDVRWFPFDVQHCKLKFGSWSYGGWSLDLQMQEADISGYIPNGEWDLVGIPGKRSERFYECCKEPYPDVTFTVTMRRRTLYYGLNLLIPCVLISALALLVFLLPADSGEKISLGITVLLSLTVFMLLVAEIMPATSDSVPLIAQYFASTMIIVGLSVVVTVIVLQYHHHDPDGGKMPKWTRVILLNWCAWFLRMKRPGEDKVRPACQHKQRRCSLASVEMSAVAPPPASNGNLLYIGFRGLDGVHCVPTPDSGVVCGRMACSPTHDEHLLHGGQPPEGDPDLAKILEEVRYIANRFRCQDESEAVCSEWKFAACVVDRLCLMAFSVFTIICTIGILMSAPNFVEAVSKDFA

With `c1cnc2c(c1)C[C@@]1(CN3CCC1CC3)O2` [AZD0328, (R)-Spiro[1-azabicyclo[2.2.2]octane-3,2′(3′H)-furo[2,3-b]pyridine]] as the compound, how does the half-life ([1]; ferret, read-out: elimination half-life) read?
The half-life was less than 300 min.

And the AUC [1, 9]?
The AUC was 4000 ng·h/mL and 18.3 µM·h.

What about the Cmax [1, 9] of the same compound?
Its Cmax is 590 ng/mL and 2.73 µM.

What about the Tmax [1, 9] of the same compound?
The Tmax was 15 to 60 min.

And the half-life ([1]; male, ferret 4M, DMO16, single oral 10 mg/kg (46 μmol/kg), read-out: T½ (converted))?
Its half-life is 239 ± 99.6 min.

And the AUC [2, 10]?
The AUC was 3140 ng·h/mL and 14.5 µM·h.

And the Cmax [2, 10]?
Its Cmax is 379 ng/mL and 1.75 µM.

What about the Tmax [2, 10] of the same compound?
The Tmax was 2 to 6 h.

What about the AUC [2, 11] of the same compound?
The AUC was 4610 ng·h/mL and 21.3 µM·h.

And the Cmax [2, 11]?
Its Cmax is 794 ng/mL and 3.67 µM.

And the Tmax [2, 11]?
The Tmax was 0.5 to 4 h.

And the AUC [2, 12]?
The AUC was 25700 ng·h/mL to 27700 ng·h/mL and 119 µM·h to 128 µM·h.

And the Cmax [2, 12]?
Its Cmax is 1420 ng/mL to 1570 ng/mL and 6.57 µM to 7.24 µM.

What about the Tmax [2, 12] of the same compound?
The Tmax was 12 h.

And the AUC/dose ([2]; minipig 2F+2M, 50190, 73.1 mg/kg (338 μmol/kg), day 1)?
The AUC/dose was 0.0429 ± 0.0275.

And the AUC/dose ([2]; minipig 2F+2M, 50190, 73.1 mg/kg (338 μmol/kg), day 7)?
Its AUC/dose is 0.0630 ± 0.0288.

What about the AUC/dose ([2]; minipig 2F+2M, 50190, 422 mg/kg (1951 μmol/kg), day 7) of the same compound?
The AUC/dose was 0.0610-0.0656.

And the Cmax ([3]; po, highest dose, read-out: total Cmax)?
Its Cmax is 31.2 µM.

And the Cmax ([3]; oral, 1.1 mg/kg, read-out: NOAEL (effect<10%) on cardiovascular function, total Cmax)?
The Cmax was 0.5 µM.

And the “increase in HR” value (rats; rat, highest dose (total Cmax 31.2 μM))?
Its value is 19%.

And the “dose without CV effect” value (rats; rat, oral gavage)?
The value was 1.1 mg/kg.

What about the “duration of BP and HR increase postdose” value (rats; telemetered rats) of the same compound?
Its value is “increased for up to 6 h postdose”.

What about the “inhibition of Pgp mediated digoxin transport” value (Pgp transporter) of the same compound?
Its value is “did not significantly inhibit”.

What about the “decrease of digoxin transport” value (Pgp transporter; 10.8 μg/mL (50 μM)) of the same compound?
Its value is 11%.

What about the “concentration with significant prolongation of APD50, APD70 and APD90” value (dog Purkinje fibre) of the same compound?
The value was no less than 5.6 µM.

And the inhibition at 10 µM (muscarinic M5 receptor)?
The inhibition at 10 µM was greater than 50%.

And the inhibition at 10 µM [4]?
Its inhibition at 10 µM is greater than 50%.

And the inhibition at 10 µM (muscarinic M3 receptor)?
Its inhibition at 10 µM is greater than 50%.

And the “inhibition of specific radioligand binding” value [5]?
The value was greater than 50%.

And the inhibition at 10 µM (adrenergic α2B receptor)?
The inhibition at 10 µM was greater than 50%.

What about the AUC (Single dose PK/TK, rat; [13]) of the same compound?
The AUC was 699 ng·h/mL to 861 ng·h/mL and 3.23 µM·h to 3.98 µM·h.

What about the Cmax (Single dose PK/TK, rat; [13]) of the same compound?
The Cmax was 251 ng/mL to 344 ng/mL and 1.16 µM to 1.59 µM.

What about the Tmax (Single dose PK/TK, rat; [13]) of the same compound?
Its Tmax is 0.5 to 1 h.

And the AUC (Single dose PK/TK, rat; [14])?
Its AUC is 76600 ng·h/mL and 354 µM·h.

What about the Cmax (Single dose PK/TK, rat; [14]) of the same compound?
The Cmax was 4740 ng/mL to 11600 ng/mL and 21.9 µM.

What about the AUC (Single dose PK/TK, rat; [15]) of the same compound?
Its AUC is 49800 ng·h/mL and 230 µM·h.

What about the Cmax (Single dose PK/TK, rat; [15]) of the same compound?
Its Cmax is 15.9 µM and 3440 ng/mL.

And the AUC (Single dose PK/TK, rat; [16])?
The AUC was 441 ng·h/mL and 2.04 µM·h.

And the Cmax (Single dose PK/TK, rat; [16])?
The Cmax was 99.9 ng/mL and 462 nM.

What about the Tmax (Single dose PK/TK, rat; [16]) of the same compound?
Its Tmax is 1 h.

And the AUC (Single dose PK/TK, rat; [17])?
The AUC was 26600 ng·h/mL and 123 µM·h.

And the Cmax (Single dose PK/TK, rat; [17])?
The Cmax was 2570 ng/mL and 11.9 µM.

What about the Tmax (Single dose PK/TK, rat; [17]) of the same compound?
Its Tmax is 1 h.

And the AUC (Single dose PK/TK, rat; [18])?
The AUC was 37900 ng·h/mL and 175 µM·h.

What about the Cmax (Single dose PK/TK, rat; [18]) of the same compound?
The Cmax was 4500 ng/mL and 20.8 µM.

And the Tmax (Single dose PK/TK, rat; [18])?
Its Tmax is 1 h.

And the AUC (Single dose PK/TK, rat; [19])?
The AUC was 90000 ng·h/mL and 416 µM·h.

And the Cmax (Single dose PK/TK, rat; [19])?
Its Cmax is 6750 ng/mL and 31.2 µM.

What about the Tmax (Single dose PK/TK, rat; [19]) of the same compound?
Its Tmax is 1 h.

And the F (Single dose PK/TK, rat; rat 1M+1F, DMR4, oral 2.16 mg/kg vs iv 1.08 mg/kg)?
The F was 78-84%.

And the plasma concentrations (Single dose PK/TK, rat; rat, 1 mg per kg (minimum effective dose in fimbria fornix model))?
Its plasma concentrations is 0.29 to 1.4 µM.

And the estimated plasma concentrations (Single dose PK/TK, rat; rats, extended to mice, 0.001-0.1 mg per kg)?
The estimated plasma concentrations was 0.29 to 100 nM.

What about the EC50 ([6]; rat recombinant α7) of the same compound?
Its EC50 is 1100 nM.

And the Emax ([6]; rat recombinant α7, 10 μM, read-out: Maximum response, whole cell current)?
The Emax was 87%.

What about the EC50 ([7]; mouse recombinant α7) of the same compound?
Its EC50 is 1000 nM.

What about the Emax ([7]; mouse recombinant α7, 10 μM, read-out: Maximum response, whole cell current) of the same compound?
The Emax was 83%.

What about the “10-90% rise time, whole cell current” value [8] of the same compound?
Its value is 1.5 ms.
